Data: patent US9554979B2, “Hair care compositions and methods of use” (The Procter & Gamble Company, priority 2011, dated 2017)

Assays:
[1] = Experimentally observed apigenin solubility in solubilizing agents and solvents; type: physicochemical
From the text: Non-limiting examples of solubilizing agents, which have suitable Hansen Solubility Parameters and may be used to solubilize apigenin include triethanolamine (CAS No. 102-71-6); diethanolamine (CAS No. 203-868-0); ethanolamine (CAS No. 141-43-5); N-methylformamide (CAS No. 123-39-7); 2-dimethylaminoethanol (CAS No. 203-542-8); 2-dimethylamino-2-propanol (108-16-7); ethylenediamine (CAS No. 107-15-3); 2-amino-2-methyl-1-propanol (CAS No. 124-68-5); laurocapram (CAS No. 59227-89-3); and dimethyl capramide (Spectrasolv, CAS No. 14433-76-2). Non-limiting examples of solvents, which have suitable Hansen Solubility Parameters and may be used in combination with one or more solubilizing agents include dipropyleneglycol (CAS No. 110-98-5); propylene glycol (Hydrolite™ 5, CAS No. […]); butylene glycol (CAS No. 107-88-0); 1,4-butanediol (CAS No. 110-63-4); 3-allyloxy-1,2-propanediol (CAS No. 123-34-2); dipropylene glycol n-butyl ether (CAS No. 29911-28-2); 1,2-hexanediol (CAS No. 6920-22-5); dimethyl isosorbide (Arlasolve™ CAS No. 5306-85-4); ethanol (CAS No. 64-17-5); 1,3-butanediol (CAS No. 107-88-0); 1,3-propanediol (CAS No. 504-63-2); 2,2′-thiodiethanol (CAS No. 111-48-8); and 1,6-hexanediol (CAS No. 629-11-8). Table 2 provides a summary of various solubilizing agents and solvents and their respective HSP values, along with experimentally observed apigenin solubility.

[2] = Hansen Solubility Parameter fitting for apigenin (HSPiP); settings: fitted in HSPiP v. 3.1.06 from solubility scores in 32 solvents
Experimental: (§1) HSPs and the solubility sphere for apigenin are optimized using the fitting method in the software HSPIP version 3.1.06 from Charles M. Hansen Consulting, Hørsholm, Denmark, hansen-solubility.com. Qualitative experimental solubilities for apigenin in 32 diverse potential solvents are determined using the scoring system at the bottom of Table 1. In the fitting function within HSPiP, solvents with scores of 1 and those with scores of 2-5 are categorized as “good” and “bad” solvents, respectively. […] Because the radius can be unbounded, fits with radii larger than 95% of the radius distribution are removed from these 50 trials (≦8.5 MPa^0.5). • 2. Determine the ranges for δD, δP, δH for the remaining fits. • 3. Locate the fit closest to this point using the Ra equation above. • 4. Chose the values for δD, δP, δH from Step 2 for the HSP's and the value of Ra from Step 3 for the radius.
Using this protocol, apigenin HSP values and solvent radius are determined to be δD=18.7, δP=13.5, δH=13.9 and Ra=6.8 (all in MPa^0.5). This sphere defines the initial region encompassing solvents into which apigenin will be soluble. (Note HSPiP v. 3.1.06 is used herein to determine all HSPs by 1) lookup if available within the program's internal database; 2) estimation if not in the database using the Y-MB method; or 3) via the procedure described above (apigenin only).)

[3] = in water and nearly all solvents suitable for pharmaceutical, cosmetic, and food additive formulations (practically insoluble); cited from earlier work
[4] = Qualitative experimental solubility scoring of apigenin in 32 solvents; type: physicochemical; set-up: key: 1 = Completely Dissolved; 2 = Very Swollen; 3 = Swollen; 4 = Slightly Swollen; 5 = Hardly Swollen; 6 = Not touched; — = Assignment Unclear
Experimental: as §1

With `O=c1cc(-c2ccc(O)cc2)oc2cc(O)cc(O)c12` [apigenin, 5,7-dihydroxy-2-(4-hydroxyphenyl)-4H-1-benzopyran-4-one] the Experimental solubility ([1]; in 1,2-hexanediol at 90 C.) was 0.4% at 90 C, the Experimental solubility ([1]; in 1,3-butanediol at 98 C.) was 1.52% at 98 C and the Experimental solubility ([1]; in 1,3-propanediol at 100 C.) was 0.73% at 100 C. It also gave an Experimental solubility ([1]; in 1,4-butanediol at 110 C.) of 1.0% at 110 C, an Experimental solubility ([1]; in 1,6-Hexanediol at 137 C.) of 4.12% at 137 C and an Experimental solubility ([1]; in 2,2′-thiodiethanol at 103 C.) of 0.47% at 103 C. The Experimental solubility ([1]; in 2-amino-2-methyl-1-propanol at 71 C.) was 20.03% at 71 C, the Experimental solubility ([1]; in 2-dimethylamino-2-propanol (CAS 108-16-7) at 21 C.) was 20.18% at 21 C and the Experimental solubility ([1]; in 2-dimethylaminoethanol at 29 C.) was 19.95% at 29 C. The Experimental solubility ([1]; in 3-allyloxy-1,2-propanediol at 120 C.) was 1.0% at 120 C, the Experimental solubility ([1]; in Dimethyl capramide at RT) was 16.0% at RT and the Experimental solubility ([1]; in Ethanol at 21 C. and 50 C.) was 0.32% at 21 C. and 50 C. The Experimental solubility ([1]; in Laurocapram at 21 C.) was 13.0% at 21 C, the Experimental solubility ([1]; in N-methylformamide) was “Ppt upon cooling” and the Experimental solubility ([1]; in butylene glycol at 98 C.) was 1.52% at 98 C. The Experimental solubility ([1]; in diethanolamine at 128 C.) was 20.25% at 128 C, the Experimental solubility ([1]; in dimethyl isosorbide at 100 C.) was 1.54% at 100 C and the Experimental solubility ([1]; in dipropylene glycol n-butyl ether at 90 C.) was 0.6% at 90 C. For the same molecule, the Experimental solubility ([1]; in dipropyleneglycol at 115 C.) was 2.19% at 115 C, the Experimental solubility ([1]; in ethanolamine at 76 C.) was 20.31% at 76 C and the Experimental solubility ([1]; in ethylenediamine at 28 C.) was 20.03% at 28 C. For the same molecule, the Experimental solubility ([1]; in propylene glycol (CAS 5343-92-0) at 100 C.) was 0.62% at 100 C, the Experimental solubility ([1]; in triethanolamine at 165 C.) was 12.7% at 165 C and the “HSP δD (dispersion-force component)” value [2] was 18.7 MPa^0.5. The “HSP δH (hydrogen-bonding component)” value [2] was 13.9 MPa^0.5, the “HSP δP (polar component)” value [2] was 13.5 MPa^0.5 and the “solvent radius Ra” value [2] was 6.8 MPa^0.5. For the same molecule, the solubility [3] was “less than 1 mg/ml”, the “Solubility Score” value ([4]; in 1,4-Dioxane) was 5 and the “Solubility Score” value ([4]; in 1-Butanol) was 4. For the same molecule, the “Solubility Score” value ([4]; in 2-Phenoxy Ethanol) was 4, the “Solubility Score” value ([4]; in 2-Propanol) was 4 and the “Solubility Score” value ([4]; in Acetone) was 5. For the same molecule, the “Solubility Score” value ([4]; in Acetonitrile) was 5, the “Solubility Score” value ([4]; in Carbon Tetrachloride) was 6 and the “Solubility Score” value ([4]; in Chloroform) was 5. The “Solubility Score” value ([4]; in Cyclohexane) was 6, the “Solubility Score” value ([4]; in Cyclohexanol) was 4 and the “Solubility Score” value ([4]; in Cyclohexanone) was 4. The “Solubility Score” value ([4]; in Diacetone Alcohol) was 4, the “Solubility Score” value ([4]; in Dichloromethane) was 5 and the “Solubility Score” value ([4]; in Dimethyl Formamide (DMF)) was 1. For the same molecule, the “Solubility Score” value ([4]; in Dimethyl Sulfoxide (DMSO)) was 1, the “Solubility Score” value ([4]; in Ethyl Acetate) was 5 and the “Solubility Score” value ([4]; in Hexane) was 6. For the same molecule, the “Solubility Score” value ([4]; in Methanol) was 4, the “Solubility Score” value ([4]; in Methyl Ethyl Ketone (MEK)) was 5 and the “Solubility Score” value ([4]; in Methyl Isobutyl Ketone (MIBK)) was 5. For the same molecule, the “Solubility Score” value ([4]; in N-Methyl-2-Pyrrolidone (NMP)) was 1, the “Solubility Score” value ([4]; in N-methylformamide) was 1 and the “Solubility Score” value ([4]; in Propylene Carbonate) was 5. For the same molecule, the “Solubility Score” value ([4]; in Propylene Glycol Monomethyl Ether) was 2, the “Solubility Score” value ([4]; in Propylene Glycol Monomethyl Ether Acetate) was 5 and the “Solubility Score” value ([4]; in Tetrahydrofuran (THF)) was 4. For the same molecule, the “Solubility Score” value ([4]; in Toluene) was 6, the “Solubility Score” value ([4]; in gamma-Butyrolactone (GBL)) was 4 and the “Solubility Score” value ([4]; in n-Butyl Acetate) was 5. For the same molecule, the “Solubility Score” value ([4]; in n-Butyl Acrylate) was 5 and the “Solubility Score” value ([4]; in p-Xylene) was 6.
